Test results from patent publication US7358263B2, “Fused bicyclic-substituted amines as histamine-3 receptor ligands” (Abbott Laboratories, priority 2006, dated 2008).

Q: For `C[C@@H]1CCCN1CCc1nc2cc(-c3ccc(C#N)cc3)ccc2o1` [Example 24E, 4-{2-[2-(2-(R)-methyl-pyrrolidin-1-yl)-ethyl]-benzooxazol-5-yl}-benzonitrile], which melting point is on record?
A: 70 to 72 °C
